Data as given in EP0337503B1, “Fumigation methods and compositions” (Entek Corporation, priority 1983, dated 1984).

What was measured:
[1] = Decomposition in sandy loam soil at different moisture, CS2 in air space by gas chromatography; type: physicochemical; details: hours to maximum CS2 concentration in the air space
Description: A sandy loam soil is placed in 1-liter glass bottles, fitted with stoppers having fluorocarbon liners and silicone rubber septa, to give a soil depth of about 4 cm. […] Thiocarbonate solution or carbon disulfide is injected near the bottom of the soil layer, the bottles are promptly sealed, and the air space in the bottles is sampled at intervals with a syringe, for gas chromatographic analysis of CS2. Results are summarized below, wherein degradation time is the number of hours required to achieve the maximum CS2 concentration in the air space.

[2] = Effect of pH on production of CS2 from thiocarbonates in citrate-phosphate buffers, gas chromatography of air; type: physicochemical
Description: Pure carbon disulfide is also injected, for comparison. A syringe is used to periodically sample air in the bottle, and the air is analyzed by gas chromatography.

[3] = system: root-knot nematode larvae (Meloidogyne incognita); assay: Greenhouse nematocide experiment with tomato plants, soil drench, root gall count; type: in vivo; details: 30 days; for Gall Counts, replicate 3: control 1; for Gall Counts, Mean: control 4.0; for Gall Counts, replicate 2: control 7; for Gall Counts, replicate 1: control 4
Description: In the experiment, thirty containers are used, each containing about 500 grams of sterilized sandy loam soil. Each container contains one tomato plant. Each container is injected with four 5-milliliter portions of extract from nematode-infested pepper roots, one inch below the soil surface, producing an initial population of 2000 root-knot nematode larvae (Meloidogyne incognita) per container.
Ten treatments are replicated three times, each treatment consisting of drenching the soil with a solution containing the fumigant to provide the dosage of CS2 given in the following table. The solutions are diluted with sufficient water to saturate the soil. The treatments include calcium tetrathiocarbonate, stabilized ammonium tetrathiocarbonate, and carbon disulfide at three levels, plus an untreated control. After drenching, each container is allowed to stand at ambient conditions. The plants are harvested after 30 days of growth, and soil is removed from the roots by a gentle washing with water. By use of a magnifying glass, the number of root galls is counted on each plant.
Results are summarized below, wherein the "Application" represents milligrams of treatment per kilogram of soil, calculated as the thiocarbonate salt and the equivalent carbon disulfide. Gall counts are mean values from the three replicates.

[4] = Rate of carbon disulfide loss from solutions, nitrogen bubbling, mass spectrometer; type: physicochemical; details: undiluted: Prep. 1 100%; pure carbon disulfide for comparison
Description: The rate at which carbon disulfide is lost from diluted ammonium thiocarbonate compositions is determined by bubbling nitrogen through the solutions, and measuring the carbon disulfide content of the gas which leaves the solution, using a mass spectrometer.
In the determination, the solution, corresponding to that of Preparation 1 (containing 14.1 percent by weight carbon disulfide), is compared to pure carbon disulfide, and to serial dilutions of the Preparation 1 solution with water, which prepared 10, 1 and 0.1 volume percent solutions of the original composition.
Results are as tabulated, wherein k is the calculated first order rate constant for loss of carbon disulfide, and t is the solution half-life.

nematode larvae = assay: In-vitro nematocidal test: larvae treated in aqueous suspension, injected into root zone of tomato plants, gall count; type: in vivo, Meloidogyne incognita; details: for Gall Count, replicate 2: control 88; for Gall Count, Mean: control 89; for Gall Count, replicate 1: control 90
Description: The procedure of Example 2 is repeated except that potassium tetrathiocarbonate is substituted for stabilized ammonium tetrathiocarbonate and an in-vitro nematocidal test is used. In the in-vitro test, the nematode larvae are treated in aqueous suspension for 1 hour at the concentrations of fumigant given in the following table, washed twice with water, and injected into the active root zone of the tomato plants. After thirty days the roots are harvested, examined for galling, giving the results summarized below.

[5] = highest application: 638/89 ppm ((NH4)2CS4·(NH4)2S), 730/91 (CaCS4), 97 ppm (CS2)
[6] = lowest application: 213/30 ppm ((NH4)2CS4·(NH4)2S), 245/31 (CaCS4), 32 ppm (CS2)
[7] = middle application: 425/60 ppm ((NH4)2CS4·(NH4)2S), 490/61 (CaCS4), 65 ppm (CS2)
[8] = 10 ppm CS2, larvae treated 1 hour
[9] = 20 ppm CS2, larvae treated 1 hour

S=C=S [CS2, carbon disulfide, reference compound]
Degradation Time ([1]; Soil Moisture 0 % of Saturation): 3.5 h
Degradation Time ([1]; Soil Moisture 50 % of Saturation): 3.5 h
Degradation Time ([1]; Soil Moisture 100 % of Saturation): 3.5 h
Half-life (minutes) for production of carbon disulfide ([2]; pH 5.2, 125 milligrams per liter of thiocarbonate ion): 1 min
Half-life (minutes) for production of carbon disulfide ([2]; pH 6.0, 125 milligrams per liter of thiocarbonate ion): 1 min
Half-life (minutes) for production of carbon disulfide ([2]; pH 7.0, 125 milligrams per liter of thiocarbonate ion): 1 min
Half-life (minutes) for production of carbon disulfide ([2]; pH 8.0, 125 milligrams per liter of thiocarbonate ion, CaCS4 values above pH 7 called unreliable): 1 min
Gall Counts, replicate 3 [3, 5]: 9
Gall Counts, Mean [3, 5]: 20.0
Gall Counts, replicate 2 [3, 5]: 24
Gall Counts, replicate 1 ([3]; highest application: 638 ppm salt/89 ppm Eq. CS2 ((NH4)2CS4·(NH4)2S), 730/91 (CaCS4), 97 ppm (CS2)): 27
Gall Counts, replicate 3 [3, 6]: 12
Gall Counts, Mean [3, 6]: 22.0
Gall Counts, replicate 2 [3, 6]: 23
Gall Counts, replicate 1 ([3]; lowest application: 213 ppm salt/30 ppm Eq. CS2 ((NH4)2CS4·(NH4)2S), 245/31 (CaCS4), 32 ppm (CS2)): 31
Gall Counts, replicate 3 [3, 7]: 33
Gall Counts, Mean [3, 7]: 26.7
Gall Counts, replicate 2 [3, 7]: 19
Gall Counts, replicate 1 ([3]; middle application: 425 ppm salt/60 ppm Eq. CS2 ((NH4)2CS4·(NH4)2S), 490/61 (CaCS4), 65 ppm (CS2)): 28
k, calculated first order rate constant for loss of carbon disulfide [4]: 2.0 (1)/(hour)
Gall Count, replicate 2 (nematode larvae; [8]): 149
Gall Count, Mean (nematode larvae; [8]): 106.5
Gall Count, replicate 1 (nematode larvae; [8]): 64
Gall Count, replicate 2 (nematode larvae; [9]): 73
Gall Count, Mean (nematode larvae; [9]): 51.0
Gall Count, replicate 1 (nematode larvae; [9]): 29
